Columns and labels:
[1] = test system: steatosis-induced Huh-7 cells; assay: Expression of fat-oxidation promoting proteins (western blot) compared to existing developed materials; type: cell-based; conditions: 250 μM PA, BW-3290 0.5, 2.5, 10 μM vs comparators 1 and 10 μM, 24 hours, FIG. 4
Experimental: To induce steatosis in Huh-7 cells in each well except for control cells, the Huh-7 cells were treated with PA bound to 2% BSA at a concentration of 250 μM except for the control, and the control cells were pretreated with 2% BSA without FA.
The cells in each well were treated with the compounds of the present invention, BW-3290, 0.5 μM, 2.5 μM, and 10 μM, PF-06409577 1 μM and 10 μM, and elafibranor 1 μM and 10 μM, respectively and then cultured for 24 hours. The control cells and PA treated cells were treated with DMSO. All media were aspirated and the cells were gently washed 3 times with cold PBS.
A cold lysis buffer containing 150 mM sodium chloride (NaCl), 5 mM ethylenediaminetetraacetic acid (EDTA), pH 8.0, […] 4-(2-hydroxyethyl)-1-piperazineethanesulfonic acid (HEPES), 1% nonylphenoxypolyethoxylethanol (NP-40), aprotinin (2 μg/mL), 1 μM pepstatin A, 10 μM leupeptin, 1 mM sodium fluoride (NaF), 0.2 mM sodium orthovanadate ([…]), and 1 μM phenylmethylsulfonyl fluoride (PMSF) was added thereto.
A whole cell lysate was collected and gently pipetted at least 10 times to ensure complete lysis. The sample was incubated on ice for 20 minutes and centrifuged 4° C. at 13,000 rpm, for 20 minutes. […]
Images were acquired using an ImageQuant LAS 3000 (Fujifilm, Tokyo, Japan). Data were analyzed.

[2] = test system: steatosis-induced Huh7 cells; assay: Fat globule reducing effect in steatosis-induced hepatocytes by Oil-Red-O staining; type: cell-based; conditions: 250 μM PA, 0.5, 2.5 and 10 μM, concentration dependent, FIG. 7
Experimental: According to an embodiment of the present invention, in order to confirm the effect of inhibiting the accumulation of triglycerides in steatosis-induced liver cells, the Huh7 cells were cultured in an incubator set at 37° C. with 95% humidity and 5% CO2.
Additionally, Huh7 cells were proliferated to a confluency of 80-90% on a plate using a growth medium (Dulbecco's modified Eagle's medium (DMEM) supplemented with 10% fetal bovine serum (FBS), 100 U/ml of penicillin, and 100 μg/ml of streptomycin), and then used for the experiment.
According to an embodiment of the present invention, in order to confirm the ability of BW-3290 to inhibit fat globule accumulation in steatosis-induced liver cells, the liver cells were treated with palmitic acid (PA) bound to 2% BSA at a concentration of 250 μM except for the control group to induce steatosis, and then fat globules were stained through Oil-Red-O staining.
First, liver cells were cultured to grow 80-90% confluency in a 12 well plate, and the test material were diluted in the culture medium that induced steatosis and the liver cells, except for the control group, were treated with 0.5 μM, 2.5 μM, and 10 μM of the test material.
Additionally, after removing the cell supernatant from the wells for Oil-Red-O staining, the washing process was performed twice with PBS. […]

CC(C)C(Nc1ncnc2nc[nH]c12)c1nc2cccc(Cl)c2c(=O)n1-c1ccccc1 (stereo not drawn) [BW-3290, 2-(1-((7H-purin-6-yl)amino)-2-methylpropyl)-5-chloro-3-phenylquinazolin-4(3H)-one]
expression of LCAD (fatty acid oxidation-related protein) compared to PF-064099577 and elafibranor [1]: same or higher effect of fatty acid degradation
p-ACC expression (inhibition of fat accumulation) compared to PF-064099577 and elafibranor [1]: same or higher effect of inhibiting fat accumulation
fat globule staining (Oil-Red-O) compared to PA [2]: lower level of fat globule staining compared to PA

— patent US20230097253A1, “NOVEL QUINAZOLINE COMPOUND AS THERAPEUTIC AGENT FOR METABOLIC DISORDERS” (BIOWAY., INC, priority 2020, published 2023)
